Measured values taken from PubChem BioAssay (NCI).
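Five concentrations, 48 hours, 96-well plates. TGI denotes the concentration required for complete inhibition of growth.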

Legend:
Test in all cases: NCI anticancer screen, dose series, 48 h
[1] = test system: K-562 leukemia
[2] = test system: OVCAR-3 ovarian
[3] = test system: COLO 205 colon
[4] = test system: HOP-18 NSCLC
[5] = test system: OVCAR-4 ovarian
[6] = test system: MALME-3M melanoma
[7] = test system: A549 NSCLC
[8] = test system: SK-OV-3 ovarian
[9] = test system: HL-60(TB) leukemia
[10] = test system: NCI-H23 lung
[11] = test system: U251 CNS
[12] = test system: NCI-H460 lung
[13] = test system: 786-0 renal
[14] = test system: SNB-19 CNS
[15] = test system: SF-295 CNS
[16] = test system: DMS 114 small cell lung
[17] = test system: RPMI-8226 leukemia
[18] = test system: M19-MEL melanoma
[19] = test system: HCC-2998 colon
[20] = test system: ACHN renal
[21] = test system: HCT-116 colon
[22] = test system: SK-MEL-28 melanoma
[23] = test system: UACC-62 melanoma
[24] = test system: CCRF-CEM leukemia
[25] = test system: LOX IMVI melanoma
[26] = test system: HOP-92 NSCLC
[27] = test system: KM12 colon
[28] = test system: DMS 273 small cell lung
[29] = test system: XF 498 CNS
[30] = test system: A498 renal
[31] = test system: HCT-15 colon
[32] = test system: SK-MEL-2 melanoma
[33] = test system: KM20L2 colon
[34] = test system: HOP-62 NSCLC
[35] = test system: SF-539 CNS
[36] = test system: IGROV1 ovarian
[37] = test system: EKVX NSCLC
[38] = test system: SK-MEL-5 melanoma
[39] = test system: NCI-H226 lung
[40] = test system: MOLT-4 leukemia
[41] = test system: HT29 colon
[42] = test system: NCI-H522 lung
[43] = test system: UACC-257 melanoma
[44] = test system: SW-620 colon
[45] = test system: RXF 393 renal
[46] = test system: SF-268 CNS
[47] = test system: RXF-631 renal
[48] = test system: SNB-78 CNS
[49] = test system: OVCAR-8 ovarian
[50] = test system: SN12C renal
[51] = test system: M14 melanoma
[52] = test system: UO-31 renal
[53] = test system: TK-10 renal
[54] = test system: SNB-75 CNS
[55] = test system: LXFL 529 NSCLC
[56] = test system: CAKI-1 renal
[57] = test system: DLD-1 colon
[58] = test system: SR leukemia
[59] = test system: OVCAR-5 ovarian

CC#C[C@@]1(O)CCCCC1O (stereo not given in full)
TGI [1]: > 100 µM
TGI [2]: > 100 µM
TGI [3]: > 100 µM
TGI [4]: > 100 µM
TGI [5]: > 100 µM
TGI [6]: > 100 µM
TGI [7]: > 100 µM
TGI [8]: > 100 µM
TGI [9]: > 100 µM
TGI [10]: > 100 µM
TGI [11]: > 100 µM
TGI [12]: > 100 µM
TGI [13]: > 100 µM
TGI [14]: > 100 µM
TGI [15]: > 100 µM
TGI [16]: > 100 µM
TGI [17]: > 100 µM
TGI [18]: > 100 µM
TGI [19]: > 100 µM
TGI [20]: > 100 µM
TGI [21]: > 100 µM
TGI [22]: > 100 µM
TGI [23]: > 100 µM
TGI [24]: > 100 µM
TGI [25]: > 100 µM
TGI [26]: > 100 µM
TGI [27]: > 100 µM
TGI [28]: > 100 µM
TGI [29]: > 100 µM
TGI [30]: > 100 µM
TGI [31]: > 100 µM
TGI [32]: > 100 µM
TGI [33]: > 100 µM
TGI [34]: > 100 µM
TGI [35]: > 100 µM
TGI [36]: > 100 µM
TGI [37]: > 100 µM
TGI [38]: > 100 µM
TGI [39]: > 100 µM
TGI [40]: > 100 µM
TGI [41]: > 100 µM
TGI [42]: > 100 µM
TGI [43]: > 100 µM
TGI [44]: > 100 µM
TGI [45]: > 100 µM
TGI [46]: > 100 µM
TGI [47]: > 100 µM
TGI [48]: > 100 µM
TGI [49]: > 100 µM
TGI [50]: > 100 µM
TGI [51]: > 100 µM
TGI [52]: > 100 µM
TGI [53]: > 100 µM
TGI [54]: > 100 µM

Cn1ccnc1Cn1cc(-c2cccc(-c3cn[nH]c3)c2)cn1
TGI [1]: > 100 µM
TGI [2]: > 100 µM
TGI [3]: > 100 µM
TGI [5]: > 100 µM
TGI [7]: > 100 µM
TGI [8]: 41.9 µM
TGI [9]: > 100 µM
TGI [11]: > 100 µM
TGI [12]: > 100 µM
TGI [13]: > 100 µM
TGI [14]: > 100 µM
TGI [15]: > 100 µM
TGI [16]: > 100 µM
TGI [17]: > 100 µM
TGI [18]: > 100 µM
TGI [19]: > 100 µM
TGI [20]: > 100 µM
TGI [21]: > 100 µM
TGI [22]: > 100 µM
TGI [23]: 49 µM
TGI [24]: > 100 µM
TGI [25]: > 100 µM
TGI [26]: > 100 µM
TGI [27]: > 100 µM
TGI [28]: > 100 µM
TGI [55]: > 100 µM
TGI [29]: > 100 µM
TGI [30]: > 100 µM
TGI [31]: > 100 µM
TGI [32]: > 100 µM
TGI [33]: > 100 µM
TGI [34]: > 100 µM
TGI [37]: 99.8 µM
TGI [38]: > 100 µM
TGI [56]: > 100 µM
TGI [40]: > 100 µM
TGI [42]: > 100 µM
TGI [43]: > 100 µM
TGI [44]: > 100 µM
TGI [45]: > 100 µM
TGI [46]: > 100 µM
TGI [47]: > 100 µM
TGI [48]: > 100 µM
TGI [49]: > 100 µM
TGI [50]: > 100 µM
TGI [57]: > 100 µM
TGI [51]: > 100 µM
TGI [52]: > 100 µM
TGI [58]: > 100 µM
TGI [53]: > 100 µM
TGI [54]: > 100 µM

O=C1NC(=O)C2C1c1[nH]c3ccccc3c1C1CCCC12 (stereo not given)
TGI [1]: > 100 µM
TGI [2]: 5.64 µM
TGI [3]: 32.1 µM
TGI [4]: 83.8 µM
TGI [5]: > 100 µM
TGI [6]: > 100 µM
TGI [7]: > 100 µM
TGI [8]: 45.4 µM
TGI [10]: > 100 µM
TGI [11]: 22.6 µM
TGI [12]: > 100 µM
TGI [13]: > 100 µM
TGI [14]: > 100 µM
TGI [15]: 6.56 µM
TGI [16]: 29.5 µM
TGI [17]: > 100 µM
TGI [18]: > 100 µM
TGI [19]: > 100 µM
TGI [20]: > 100 µM
TGI [22]: > 100 µM
TGI [23]: > 100 µM
TGI [24]: > 100 µM
TGI [25]: > 100 µM
TGI [27]: > 100 µM
TGI [28]: 12.6 µM
TGI [55]: > 100 µM
TGI [29]: 6.85 µM
TGI [30]: 26.6 µM
TGI [31]: > 100 µM
TGI [35]: 11.8 µM
TGI [36]: > 100 µM
TGI [37]: > 100 µM
TGI [38]: 8.66 µM
TGI [39]: 51.7 µM
TGI [40]: > 100 µM
TGI [41]: > 100 µM
TGI [44]: > 100 µM
TGI [45]: 24.4 µM
TGI [46]: 39.1 µM
TGI [47]: > 100 µM
TGI [48]: > 100 µM
TGI [49]: 64.5 µM
TGI [50]: > 100 µM
TGI [57]: > 100 µM
TGI [51]: > 100 µM
TGI [59]: > 100 µM
TGI [52]: > 100 µM
TGI [58]: > 100 µM
TGI [53]: > 100 µM
TGI [54]: 6.29 µM
